Results: paper PMC4471902, “Block of NMDA receptor channels by endogenous neurosteroids: implications for the agonist induced conformational states of the channel vestibule” (Scientific Reports, 2015)
Several values for one entry are separate records, joined by “and”; a condition that tells them apart may be missing. Equal values may be shown once. Where a name gives a salt, the structure may show the parent alone.

Experiments:
[1] = Steroid concentration in the cytoplasmic membrane (erythrocyte membrane ghosts, HPLC-MS); assay type: physicochemical, rat
Experimental: All animal manipulations were conducted in accordance with the Animal Protection Code of the Czech Republic and corresponding directives of the European Community Council (2010/63/EC). Experiments were approved by the Animal Care and Use Committee of the Institute of Physiology of the Academy of Sciences of the Czech Republic. Blood was collected from one adult Wistar rat, heparinized, and spun down at 1,000 g for 10 min. Cells were washed once with PBS, briefly spun down and the pellet resuspended in a minimum amount of ECS. Cells were counted and 200 μl aliquots (~3*10^9 cells) were taken for the experiment. Cell membranes were prepared by 30 min erythrocyte lysis in distilled water followed by centrifugation at 25,000 g for 10 min and resuspension in 200 μl of ECS. Cell membranes were incubated for 2 min with PA-S solution in ECS at the final volume of 500 μl, followed by a spin down at 20,000 g for 2 min. Supernatants were taken for liquid chromatography-mass spectrometry analysis (HPLC-MS). Solution of PA-S without membranes served as a control. […]
PA-S concentration was assessed in ECS to which steroid was added from its 20 mM stock solution ([PA-S]ECS) and in the supernatant of a solution containing er ythroc yte membranes ([PA-S]EC S+M) (see Methods). The concentration of steroid in the membrane ([PA-S]M) was calculated from the difference of [PA-S] in the control solution ([PA-S] EC S) and that in the supernatant containin g m embranes ([PA-S]EC S+M) accordin g to [PA-S]M = ([PA-S]ECS - [PA-S]EC S+M) · Vsolu tion /Vmembrane (where V denotes volume). Data points were fitted to the linear equation of the following form y = 38.8 * x; The partition coeffici ent for P A-S was calculated […]
7.4) determined using the online program CHEMICALIZE (http://www.chemicalize.org/).
Data points represent the mean of two independent measurements. The values of the partition coefficient (log D) of PA-S in the erythrocyte cytoplasmic membrane was calculated assuming 136 μm2 as the mean surface area of a rat erythroc yte and 4 nm as the mean membrane thickness. […]

[2] = Light scattering analysis of particle size in ECS; assay type: physicochemical
Experimental: Light scattering (Zetasizer Nano ZS, Malvern Instruments, United Kingdom) was used to characterize particle size of PA-S in ECS. PA-S was dissolved in DMSO at a concentration of 20 mM and then in the ECS at a final concentration of 5 nM to 150 μM PA-S. This solution was sonicated (Ultrasonic Sonorex Super RK 103 H, Bandelin electronic GmbH & Co. KG, Germany) for 1 min. Light scattering analysis was repeated six times for each sample at 25 °C.

CC(=O)[C@H]1CC[C@H]2[C@@H]3CC[C@@H]4C[C@H](OS(=O)(=O)O)CC[C@]4(C)[C@H]3CC[C@]12C [PA-S, 20-oxo-5β-pregnan-3α-yl sulfate]
equilibrium surface density S ([1]; calculated for the PA-S IC50 value of 55.7 µM): 4.32 10−9 M m −2
flux Jout of steroid from the membrane into the aqueous phase ([1]; product of [PA-S]membrane and koff): at least 4.3 μM s^−1 m^−2
slope of linear fit of [PA-S]M versus aqueous concentration ([1]; y = slope * x): 38.8
PA-S concentration at which two particle sizes are present ([2]; ECS): > 300 nM
PA-S concentration at which two particle sizes were observed ([2]; ECS): ≥ 0.4 µM
small particle size (single steroid molecule) ([2]; ECS): ~ 2.5 nm
critical aggregate concentration (CAC) ([2]; ECS, 25 °C): ~ 300 nM and 300 nM
size of aggregates ([2]; ECS, concentrations relevant to effect at the NMDAR): ~ 400 nm
molecules present in the ECS in aggregates ([2]; at the PA-S concentration corresponding to its IC50 at NMDARs): 99.5%
